Series [1] deals with IL-1β production in PMA-differentiated THP-1 cells. Kind of series: IL-1β production in PMA-differentiated THP-1 cells stimulated with gramicidin (hTHP-1 assay). Type of series: cell-based. Particulars: Homo sapiens, gramicidin 5 μM, 2% fetal bovine serum. The procedure:
Procedure 1: IL-1β Production in PMA-Differentiated THP-1 Cells Stimulated with Gramicidin.
THP-1 cells were purchased from the American Type Culture Collection and sub-cultured according to instructions from the supplier. Cells were cultured in complete RPMI 1640 (containing 10% heat inactivated FBS, penicillin (100 units/ml) and streptomycin (100 μg/ml)), and maintained in log phase prior to experimental setup. Prior to the experiment, compounds were dissolved in dimethyl sulfoxide (DMSO) to generate a 30 mM stock. The compound stock was first pre-diluted in DMSO to 3, 0.34, 0.042 and 0.0083 mM intermediate concentrations and subsequently spotted using Echo550 liquid handler into an empty 384-well assay plate to achieve desired final concentration (e.g. 100, 33, 11, 3.7, 1.2, 0.41, 0.14, 0.046, 0.015, 0.0051, 0.0017 μM). DMSO was backfilled in the plate to achieve a final DMSO assay concentration of 0.37%. The plate was then sealed and stored at room temperature until required.
THP-1 cells were treated with PMA (Phorbol 12-myristate 13-acetate) (20 ng/ml) for 16-18 hours. On the day of the experiment the media was removed and adherent cells were detached with trypsin for 5 minutes. Cells were then harvested, washed with complete RPMI 1640, spun down, and resuspended in RPMI 1640 (containing 2% heat inactivated FBS, penicillin (100 units/ml) and streptomycin (100 μg/ml). The cells were plated in the 384-well assay plate containing the spotted compounds at a density of 50,000 cells/well (final assay volume 50 μl). Cells were incubated with compounds for 1 hour and then stimulated with gramicidin (5 μM) (Enzo) for 2 hours. Plates were then centrifuged at 340 g for 5 min. Cell free supernatant (40 μL) was collected using a 96-channel PlateMaster (Gilson) and the production of IL-1β was evaluated by HTRF (cisbio). The plates were incubated for 18 h at 4° C. and read using the preset HTRF program (donor emission at 620 nm, acceptor emission at 668 nm) of the SpectraMax i3x spectrophotometer (Molecular Devices, software SoftMax 6). A vehicle only control and a dose titration of CRID3 (100-0.0017 μM) were run concurrently with each experiment. Data was normalized to vehicle-treated samples (equivalent to 0% inhibition) and CRID3 at 100 μM (equivalent to 100% inhibition).
Procedure 2: IL-1β Production in PMA-Differentiated THP-1 Cells Stimulated with Gramicidin.
THP-1 cells were purchased from the American Type Culture Collection and sub-cultured according to instructions from the supplier. Prior to experiments, cells were cultured in complete RPMI 1640 (containing 10% heat inactivated FBS, penicillin (100 units/ml) and streptomycin (100 μg/ml)), and maintained in log phase prior to experimental setup. Prior to the experiment THP-1 were treated with PMA (Phorbol 12-myristate 13-acetate) (20 ng/ml) for 16-18 hours. Compounds were dissolved in dimethyl sulfoxide (DMSO) to generate a 30 mM stock. On the day of the experiment the media was removed and adherent cells were detached with trypsin for 5 minutes. Cells were then harvested, washed with complete RPMI 1640, spun down, resuspended in RPMI 1640 (containing 2% heat inactivated FBS, penicillin (100 units/ml) and streptomycin (100 μg/ml). The cells were plated in a 384-well plate at a density of 50,000 cells/well (final assay volume 50 μl). Compounds were first dissolved in assay medium to obtain a 5× top concentration of 500 μM. 10 step dilutions (1:3) were then undertaken in assay medium containing 1.67% DMSO. 5× compound solutions were added to the culture medium to achieve desired final concentration (e.g. 100, 33, 11, 3.7, 1.2, 0.41, 0.14, 0.046, 0.015, 0.0051, 0.0017 μM). Final DMSO concentration was at 0.37%. Cells were incubated with compounds for 1 hour and then stimulated with gramicidin (5 μM) (Enzo) for 2 hours. Plates were then centrifuged at 340 g for 5 min. […]

A short description of series [2]: Colon pharmacokinetics in mice. It is filed as in vivo. As to conditions: 30 mg/kg oral gavage in 0.5% methyl-cellulose in water, male C57BL/6 mouse, colon conc. to plasma conc. ratio at 8 h; read-out: Mouse TD Colon/Plasma @ 8 h. The procedure: Assay 2: Colon Pharmacokinetics in Mice
The test compound was formulated in 0.5% methyl-cellulose in water and dosed via oral gavage at 30 mg/kg to Male C57BL/6 Mouse. At various time points (typically 15 min, 30 min, 1, 2, 4, 6 and 8 h) post dosing, blood samples were removed via cardiac […] puncture and intact colons were excised from the […]. Blood samples were centrifuged at 1500×g for 15 min to collect plasma. At the terminal time point each individual animal is anaesthetized, abdominal cavity is opened and from 2 cm below the caecum a 4 cm sample of the colon is dissected, cut open on the longitudinal axis and the solid contents removed by flushing with 2 mL of physiological fluid. The colon was further washed by putting it in 5 mL of physiological saline and shaken for 1 minute. The colon was pet dry weighed and transferred in 2 mL tubes. Colon will be weighted and homogenized with water by tissue weight (g) to water volume (mL) at ratio 1:3 before analysis. The actual concentration is the detected value multiplied by the dilution factor. A colon to plasma ratio was determined as the ratio of the colon conc. to the plasma conc. in pg hr/g. at 8 h time point.

Each structure is given as a SMILES string.

`CC(C)c1cc(-c2ccc3c(c2)COCC3)cc(C(C)C)c1CC(=O)NS(=O)(=O)c1sc(C(C)(C)O)nc1CO` [Compound 101] registered an IC50 in series [1] (class symbols) of 1 to 5 µM.

In the case of `CC(C)c1cc2c(c(C(C)C)c1CC(=O)NS(=O)(=O)c1sc(C(C)(C)O)nc1CO)COC2` [Compound 102], the IC50 in series [1] (class symbols) lay in the range of 1 to 5 µM.

`COc1cc(S(=O)(=O)NCCCO)ccc1S(=O)(=O)NC(=O)Cc1c(C(C)C)cc(C#N)c(F)c1C(C)C` [Compound 103]: the concentration for half-maximal inhibition (IC50) in series [1] (class symbols) is 1 to 5 µM.

Take `CC(C)c1ccc(C#N)c(C(C)C)c1CC(=O)NS(=O)(=O)c1sc(C(C)(C)O)nc1CO` [Compound 104]: the IC50 in series [1] (class symbols) lay within 5 to 30 µM.

`CC(C)c1c(F)c(C#N)cc(C2CC2)c1CC(=O)NS(=O)(=O)c1sc(C(C)(C)O)nc1CO` [Compound 105] came in with an IC50 in series [1] (class symbols) of 1 to 5 µM.

Consider `COc1cc(S(=O)(=O)NCCO)ccc1S(=O)(=O)NC(=O)Cc1c(C(C)C)cc(C#N)c(F)c1C(C)C` [Compound 106], for which, in series [1] (class symbols), the IC50 is 5 to 30 µM.

Regarding `CNS(=O)(=O)c1ccc(S(=O)(=O)NC(=O)Cc2c(C(C)C)cc(C#N)c(F)c2C(C)C)c(O)c1` [Compound 107], in series [1] (class symbols), the IC50 was 0.2 to 1 µM.

`CC(C)c1cc(C#N)c(F)c(C(C)C)c1CC(=O)NS(=O)(=O)c1sc(C(C)(C)O)nc1CCO` [Compound 108] registered a half-maximal inhibitory concentration (IC50) in series [1] (class symbols) of 0.2 to 1 µM.

Molecule `CC(C)c1cncc(C(C)C)c1CC(=O)NS(=O)(=O)c1sc(C(C)(C)O)nc1CO` [Compound 109] had an IC50 in series [1] (class symbols) of 5 to 30 µM.

As to `CNS(=O)(=O)c1ccc(S(=O)(=O)NC(=O)Cc2c(C(C)C)cc(C#N)c(F)c2C(C)C)c(C(N)=O)c1` [Compound 111], the concentration for half-maximal inhibition (IC50) in series [1] (class symbols) lay within 5 to 30 µM.

On to `CNS(=O)(=O)c1ccc(S(=O)(=O)NC(=O)Cc2c(C(C)C)cc(C#N)c(F)c2C(C)C)c(C(=O)N(C)C)c1` [Compound 112], for which the IC50 in series [1] (given as numeric bound) is above 100 µM.

In series [1] (given as numeric bound), `CNS(=O)(=O)c1ccc(S(=O)(=O)NC(=O)Cc2c(C(C)C)cc(C#N)c(F)c2C(C)C)c(C(=O)O)c1` [Compound 114] returned an IC50 above 100 µM.

In turn, `CNS(=O)(=O)c1ccc(S(=O)(=O)NC(=O)Cc2c(C(C)C)cc(COC)cc2C(C)C)c(CO)c1` [Compound 116] returned an IC50 in series [1] (class symbols) of 1 to 5 µM.

For `CNS(=O)(=O)c1ccc(S(=O)(=O)NC(=O)Cc2c(C(C)C)cc(C#N)c(F)c2C(C)C)c(OC)c1` [Compound 117], the IC50 in series [1] (class symbols) fell in the range of 0.2 to 1 µM. Besides, the Kp at 8 h in series [2] turned out to be 3380.

`COCc1cc(C(C)C)c(CC(=O)NS(=O)(=O)c2sc(C(C)(C)O)nc2CO)c(C(C)C)c1` [Compound 118]: in series [1] (class symbols), the IC50 was 1 to 5 µM.

Molecule `CCC(C)c1cc(C#N)cc(C(C)C)c1CC(=O)NS(=O)(=O)c1sc(C(C)(C)O)nc1CO` (stereo not drawn) [Compound 119] registered an IC50 in series [1] (class symbols) of 0.2 to 1 µM. For the same molecule, in series [2], the Kp at 8 h was 6720.

The molecule `CNS(=O)(=O)c1ccc(S(=O)(=O)NC(=O)Cc2c(C(C)C)cc(C#N)c(F)c2C(C)C)c(C(=O)OC)c1` [Compound 120] registered an IC50 in series [1] (class symbols) of 5 to 30 µM.

As for `CC(C)Cc1cc(C#N)cc(C(C)C)c1CC(=O)NS(=O)(=O)c1sc(C(C)(C)O)nc1CO` [Compound 122], the IC50 in series [1] (class symbols) fell in the range of 1 to 5 µM. Also, in series [2], the Kp at 8 h was found to be 1480.

Consider `Cc1cc(C(C)(C)O)c(CO)cc1S(=O)(=O)NC(=O)Cc1c(C(C)C)cc(C#N)cc1C(C)C` [Compound 123], for which the IC50 in series [1] (class symbols) was in the range of 5 to 30 µM.

With `CC(C)c1cc(C#N)c(F)c(C(C)C)c1CC(=O)NS(=O)(=O)c1ccc(S(=O)(=O)NC(C)(C)C)cc1CO` [Compound 124], in series [1] (given as numeric bound), the IC50 was above 100 µM.

`CC(C)c1cc(C#N)c(F)c(C(C)C)c1CC(=O)NS(=O)(=O)c1cc(CO)c(C(C)(C)O)cc1F` [Compound 125] had an IC50 in series [1] (class symbols) of 1 to 5 µM.

Molecule `CC(C)c1cc(C#N)c(F)c(C(C)C)c1CC(=O)NS(=O)(=O)c1ccc(S(N)(=O)=O)cc1CO` [Compound 126] came in with an IC50 in series [1] (given as numeric bound) above 100 µM.

`CNS(=O)(=O)c1ccc(S(=O)(=O)NC(=O)Cc2c(C(C)C)cc(C#N)c(F)c2C(C)C)c(CO)c1` [Compound 127] came in with a half-inhibitory concentration (IC50) in series [1] (class symbols) of 0.2 to 1 µM. The Kp at 8 h in series [2] came out at 197.

With `CNS(=O)(=O)c1ccc(S(=O)(=O)NC(=O)Cc2c(C(C)C)cc(C#N)c(F)c2C(C)C)cc1CO` [Compound 128], the IC50 in series [1] (class symbols) was in the range of 0.2 to 1 µM. Moreover, the Kp at 8 h in series [2] turned out to be 1180.

For the molecule `CNS(=O)(=O)c1cc(CO)cc(S(=O)(=O)NC(=O)Cc2c(C(C)C)cc(C#N)c(F)c2C(C)C)c1` [Compound 129], in series [1] (class symbols), the IC50 was 1 to 5 µM.

Turning to `CC(C)c1cc(C#N)cc(C(C)C)c1CC(=O)NS(=O)(=O)c1cc(CO)c(C(C)(C)O)cc1F` [Compound 130], in series [1] (class symbols), the IC50 lay in the range of 1 to 5 µM.

`CC(C)c1cc(C#N)c(F)c(C(C)C)c1CC(=O)NS(=O)(=O)c1ccc(S(N)(=O)=O)c(CO)c1` [Compound 131] showed an IC50 in series [1] (class symbols) of 1 to 5 µM.

In the case of `CNC(=O)c1cc(S(=O)(=O)NC(=O)Cc2c(C(C)C)cc(C#N)c(F)c2C(C)C)ccc1S(=O)(=O)NC` [Compound 132], the half-inhibitory concentration (IC50) in series [1] (class symbols) was 5 to 30 µM.

Molecule `CC(C)c1cc(C#N)c(F)c(C(C)C)c1CC(=O)NS(=O)(=O)c1ccc(CN(C)C)c(CO)c1` [Compound 133] yielded an IC50 in series [1] (class symbols) of 1 to 5 µM.

In series [1] (class symbols), `CC(C)c1cc(C#N)cc(C(C)C)c1CC(=O)NS(=O)(=O)c1sc(C(C)(C)O)nc1CO` [Compound 134] yielded an IC50 of 1 to 5 µM.

For `CC(C)c1c(F)c(C#N)c(F)c(C(C)C)c1CC(=O)NS(=O)(=O)c1sc(C(C)(C)O)nc1CO` [Compound 135], the IC50 in series [1] (class symbols) lay within 0.2 to 1 µM.

`CC(C)c1cc(C#N)c(F)c(C(C)C)c1CC(=O)NS(=O)(=O)c1sc(C(C)(C)O)nc1CO` [Compound 136] gave an IC50 in series [1] (class symbols) of 0.2 to 1 µM.

`CC(C)c1cc(C#N)cc(C(C)C)c1CC(=O)NS(=O)(=O)c1ccc(CN(C)C)c(CO)c1` [Compound 137]: the IC50 in series [1] (class symbols) was in the range of 5 to 30 µM.

For `CC(C)c1cc(C#N)c(F)c(C(C)C)c1CC(=O)NS(=O)(=O)c1ccc(C(C)(C)O)c(CO)c1` [Compound 138], the IC50 in series [1] (class symbols) lay in the range of 1 to 5 µM.

In series [1] (class symbols), `CNS(=O)(=O)c1ccc(S(=O)(=O)NC(=O)Cc2c(C(C)C)cc(COC3CCCC3)cc2C(C)C)c(CO)c1` [Compound 140] came in with an IC50 of 0.04 to 0.2 µM. Besides, the Kp at 8 h in series [2] came out at 558.

In series [1] (class symbols), `CC(C)c1cc(-c2ccc3c(c2)OC(F)(F)O3)cc(C(C)C)c1CC(=O)NS(=O)(=O)c1sc(C(C)(C)O)nc1CO` [Compound 142] yielded an IC50 of 0.008 to 0.04 µM.

The values are drawn from US20210395241A1, “NLRP MODULATORS” (Novartis AG, priority 2018, published 2021).
